Measurements published in patent US20160153045A1, “Biomarkers for Increased Risk of Drug-Induced 5-Aminosalicylate Nephrotoxicity” (Severe Adverse Event (SAE) Consortium, priority 2014, published 2016).

Columns and labels:
[1] = system: Inflammatory bowel disease patients; settings: human, in vivo
Excerpt: Methods: Inflammatory bowel disease patients were recruited from 89 sites around the world. Inclusion criteria included normal renal function prior to commencing 5-ASA, ≧50% rise in creatinine any time after starting 5-ASA and physician opinion implicating 5-ASA strong enough to justify drug withdrawal. An adjudication panel identified definite and probable cases from structured case report forms. A genome wide association study was then undertaken with these cases and 4,109 disease controls.
Patient Recruitment: Individual study sites identified and recruited patients with 5-ASA induced nephrotoxicity. This study was open to recruitment at 118 UK research sites (73.8% of the 160 acute NHS trusts in the UK) as well as 45 international sites. In total 77 sites from the UK and 12 sites from outside the UK recruited one or more patients. The protocol was approved by the National Research Ethics Committee South West, Exeter, UK (10/H0203/76) and by all local research and development offices.
Inclusion criteria for patient recruitment required the presence of all of the following: • Patient administered any 5-ASA compound for treatment of inflammatory bowel disease (Crohn's disease, ulcerative colitis or IBD-unclassified) • Patient aged 6 or over • Normal creatinine or estimated glomerular filtration rate (eGFR) prior to first administration of 5-ASA or a creatinine that returned to the normal range after cessation of therapy • Greater than or equal to 50% rise in serum creatinine any time after introduction of 5-ASA • Physician opinion implicating 5-ASA strong enough to justify drug withdrawal, even if temporary
Cases were identified from recruiting sites through clinics and systematic searches of historical records and pathology databases. Gastroenterologists who replied to a 2001-2002 UK survey of 5-ASA induced nephrotoxicity were encouraged to submit cases^10. Clinicians who had submitted adverse drug reaction reports to the Medicines and Healthcare Products Regulatory Agency (MHRA) were invited to consider recruiting patients. Direct advertising to patients through the national patient newsletter was also undertaken. Cases were recruited who developed nephrotoxicity between 1988 and 2013 (73% of cases were diagnosed with renal injury after the year 2000).
Case adjudication: An anonymised case report form detailing demographic, clinical and drug history was completed with the aid of hospital records. Two 6 ml EDTA blood samples were taken at this visit for DNA extraction (BD Vacutainer, USA). The case report forms also requested creatinine levels and their corresponding dates at four time points: 1) at baseline (usually before 5-ASA commenced, but not exclusively), 2) at the recording of first abnormal creatinine value, 3) the worst creatinine value and 4) the best recovered creatinine value. After data collection, the last normal creatinine value before development of renal injury was also obtained, if it was available (92/151 cases), to enable better characterisation of the time period. If a renal biopsy was performed, the anonymised report was requested.
To assess patient eligibility for entry to this study, at least three gastroenterologists and at least one nephrologist reviewed each case for causality at a dedicated in-person adjudication panel meeting. For each case the evidence implicating the 5-ASA as the cause of nephrotoxicity was assessed using an adapted version of the validated Liverpool Adverse Drug Reaction Causality Assessment Tool^16. Patients were classified as definite, probable, possible or unlikely cases of 5-ASA nephrotoxicity based on the adjudicator's independent assessment that the nephrotoxicity was due to 5-ASA treatment. The panel discussed all cases before a final adjudication decision was reached. Only individuals classified as probable or definite cases of 5-ASA induced nephrotoxicity were taken forward for clinical and genetic analyses. […]

patients = settings: in vivo; cited from earlier work

Nc1ccc(O)c(C(=O)O)c1 [5-ASA, 5-aminosalicylate]
biopsies with acute interstitial inflammation [1]: 22% | biopsies with acute on chronic interstitial inflammation [1]: 20% | biopsies with only chronic inflammatory changes in the interstitium [1]: 58% | cases with an abnormal creatinine within the first 12 months of treatment [1]: 13% | cases with full recovery of renal function after drug withdrawal [1]: 30% | definite cases: second episode of kidney injury when re-challenged with the agent [1]: 5 cases | patients requiring renal replacement therapy [1]: 15 patients | renal biopsies with clear evidence of interstitial nephritis [1]: 57 patients | annual risk of nephrotoxicity (patients): 0.26%
